Measurements from PMC4407702 (International journal of pharmaceutics, 2011).
Converted amounts (≈) assume the structure as drawn. “And” between values parts separate entries of the source, which are not always exact repeats. Equal values may be shown once. Read-outs that look alike come from different tables or passages of the source.

What was measured:
Caco-2 cell monolayers [1] = settings: ref Ucpinar and Stavchansky, 2003; cited from earlier work
Aqueous solubility study = format: physicochemical; settings: distilled deionized water, 25 °C, thermodynamic from solid
[2] = tested on: MDCK-MDR1 cell monolayers; settings: ref Jain et al., 2005; cited from earlier work
Caco-2 cell monolayers [3] = test: Transepithelial transport across Caco-2 cell monolayers; format: in vitro ADME
[4] = as above; format: in vitro ADME; settings: human, Caco-2
SVCT [5] = biological target: SVCT (Canis lupus familiaris, UniProt A8CX01); test: Inhibition of [14C]AA uptake in MDCK-MDR1 cells; format: cell-based, canine; settings: 200 μM unlabeled compound, [14C]AA 23.5 μM
Sequence of SVCT (Canis lupus familiaris, UniProt A8CX01) (A8CX01 1-605): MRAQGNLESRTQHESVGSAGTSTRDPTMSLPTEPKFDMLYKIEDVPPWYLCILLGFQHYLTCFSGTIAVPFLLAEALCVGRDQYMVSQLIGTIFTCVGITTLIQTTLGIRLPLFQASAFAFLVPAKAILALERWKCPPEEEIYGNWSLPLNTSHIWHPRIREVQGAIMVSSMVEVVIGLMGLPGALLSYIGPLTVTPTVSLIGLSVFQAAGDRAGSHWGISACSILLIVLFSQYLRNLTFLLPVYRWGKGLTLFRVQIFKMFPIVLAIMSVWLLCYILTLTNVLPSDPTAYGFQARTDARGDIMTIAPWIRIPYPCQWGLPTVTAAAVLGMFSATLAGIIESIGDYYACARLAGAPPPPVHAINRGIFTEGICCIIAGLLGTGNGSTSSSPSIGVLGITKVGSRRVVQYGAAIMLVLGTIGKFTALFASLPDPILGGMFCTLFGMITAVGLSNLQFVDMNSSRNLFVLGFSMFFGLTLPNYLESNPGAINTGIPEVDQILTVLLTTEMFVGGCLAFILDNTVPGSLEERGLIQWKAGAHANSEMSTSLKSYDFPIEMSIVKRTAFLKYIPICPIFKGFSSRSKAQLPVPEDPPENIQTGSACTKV

SVCT [6] = biological target: SVCT (Homo sapiens, UniProt Q9UHI7); test: Inhibition of [14C]AA uptake in Caco-2 cells; format: cell-based; settings: 200 μM unlabeled compound, [14C]AA 23.5 μM
Sequence of SVCT (Homo sapiens, UniProt Q9UHI7) (Q9UHI7 whole entry): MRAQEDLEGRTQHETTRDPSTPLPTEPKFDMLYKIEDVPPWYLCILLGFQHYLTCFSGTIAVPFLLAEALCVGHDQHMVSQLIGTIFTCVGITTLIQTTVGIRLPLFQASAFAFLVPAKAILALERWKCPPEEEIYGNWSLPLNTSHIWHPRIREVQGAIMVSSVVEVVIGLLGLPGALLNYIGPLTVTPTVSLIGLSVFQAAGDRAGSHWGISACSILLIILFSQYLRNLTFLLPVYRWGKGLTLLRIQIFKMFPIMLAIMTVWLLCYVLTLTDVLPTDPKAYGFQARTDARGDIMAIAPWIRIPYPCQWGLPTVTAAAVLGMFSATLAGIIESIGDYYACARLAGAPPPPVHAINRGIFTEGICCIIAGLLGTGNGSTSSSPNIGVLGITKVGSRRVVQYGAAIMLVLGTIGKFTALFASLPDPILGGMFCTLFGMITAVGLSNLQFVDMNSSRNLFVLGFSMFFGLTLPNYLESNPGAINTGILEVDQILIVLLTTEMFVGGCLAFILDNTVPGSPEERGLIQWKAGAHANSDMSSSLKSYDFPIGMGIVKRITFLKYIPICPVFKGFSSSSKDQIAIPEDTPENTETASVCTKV

[7] = Caco-2, [14C]AA 23.5 μM or AA-Su-Saq 25 μM donor, 3 h

SMILES: CC(C)(C)NC(=O)[C@@H]1C[C@@H]2CCCC[C@@H]2CN1C[C@@H](O)[C@H](Cc1ccccc1)NC(=O)[C@H](CC(N)=O)NC(=O)c1ccc2ccccc2n1 [Saq, Saquinavir]
- P(A–B) (Caco-2 cell monolayers [1]): 0.93 cm/s, × 10^−6 and 0.93 ±0.10 cm/s, × 10^−6
- P(B–A) (Caco-2 cell monolayers [1]): 20.39 ± 1.53 cm/s, × 10^−6
- solubility at 24 h (Aqueous solubility study): 1750 ± 290 µM (≈ 1170 µg/mL)
- P(A–B) [2]: 0.463 ± 0.025 cm/s, × 10^−6
- P(B–A) [2]: 19.9 ± 1.70 cm/s, × 10^−6
- PA–B [2]: 0.463 ×10⁻⁶ cm/s

SMILES: O=C1O[C@H]([C@@H](O)CO)C(O)=C1O [AA, L-Ascorbic acid]
- P(A–B) (Caco-2 cell monolayers [3]; [7]): 17.6 ± 0.39 cm/s, × 10^−6
- P(B–A) (Caco-2 cell monolayers [3]; [7]): 15.5 ± 3.11 cm/s, × 10^−6
- PA–B and PB–A in Caco-2 cells higher than in MDCK-MDR1 cells (Caco-2 cell monolayers [3]; Caco-2 vs MDCK-MDR1): about 2 fold
- Papp A→B at 3 h, 23.5 μM [4]: 17.6 ± 0.39 ×10⁻⁶ cm/s
- Papp B→A at 3 h, 23.5 μM [4]: 15.5 ± 3.11 ×10⁻⁶ cm/s
- Uptake of [14C]AA diminished (inhibition) (SVCT [5]): 65%
- Inhibition of [14C]AA uptake (SVCT [6]): 66%
